Test results as given in US5219825A, “Synergistic herbicidal compositions comprising herbicides which generate toxic oxygen radicals and chelating agents which inhibit their detoxification” (Yeda Research and Development Co., Ltd., priority 1986, dated 1993).

How the values were obtained:
[1] = tested on: isolated Asparagus sprengeri cells; assay: Chlorophyll loss in isolated cells (synergism at the cellular level); assay type: cell-based; details: for chlorophyll remaining - % of control: paraquat 0 μM, 14 h, 1000 μEin m^-2 s^-1; for % of control chlorophyll: DDC 0.02% where added, 40 h, low light 305 μEin m^-2 s^-1
Protocol: Isolated cells offer an excellent rapid method of screening for phytotoxicity using a large number of potential chelators and synergists. Asparagus sprengeri cells were isolated from cladophylls of field grown plants using the procedure of Colman et al. (Can. J. Botany 57 1505, (1979)) except that the isolation, washing and culture buffer was 50 mM HEPES brought to pH 7.2 with KOH. The cladophylls were surface sterilized using 80% aqueous ethanol. After three centrifugations to remove broken cells, the cells were diluted to 10% packed volume and 0.75 ml were placed in each well of cluster dishes. The potential synergists in this example 0.02% w/v final concentration diethyldithiocarbamate (DDC) and an oxime of 4-octyl-2-acetyl-phenol (U.S. Pat. No. 4,215,219) which complex primarily with copper and di-2-ethylhexyl-phosphoric acid which complexes primarily with zinc (Flett, Chem and Ind. 17 706, (1977)) was placed with the herbicides atrazine and paraquat. All additions were made at 100 fold the final concentration of herbicide and synergist. Paraquat was dissolved in water and atrazine in methanol. The cluster dishes were incubated on a reciprocal shaker with a clear plastic bottom and illuminated from top and bottom with fluorescent lights emitting 135 μEin.m^-2 s^-1 (top) and 170 μEin.m^-2 s^-1 (bottom). The cells were kept mixed by the shaker and incubation was at room temperature. Incubation was stopped when there was visually obvious loss of chlorophyll due to treatments in a given experiment. The cells were removed to glass centrifugation tubes, centrifuged and the supernatant removed. One ml of 80% aqueous acetone was added to extract chlorophyll, the debris were sedimented by centrifugation and chlorophyll was spectrophotometrically determined at 645 and 663 nm according to Arnon (Plant Physiology 24 1, (1949)). […] In another experiment, a larger variety of chelating synergists and oxidant generating herbicides were used, and light was given at a much higher intensity 1000 μEin m^-2 s^-1 to better approach natural sunlight which is at 1200-1500 […].
Paraquat toxicity was measured 24 h after treatment and atrazine toxicity was measured 40 h after treatment.
Paraquat toxicity was measured 14 h after treatment.

[2] = tested on: leaves; assay: Blocked chelate controls tested for synergism with paraquat; assay type: in vivo
Excerpt: (§1) The commercial fungicides, maneb [manganese ethylene-bis(dithiocarbamate) (polymeric)] and zineb [zinc ethylene-bis (dithiocarbamate) (polymeric)] were used, they have similar structures and effects as DDC, but are blocked and act as chelate controls […] to clarify that a synergism would be due to the chelating effect of diethyldithiocarbamate. […] They could not chelate copper due to their being blocked.

[3] = tested on: Conyza bonariensis paraquat sensitive (low herbicide requiring) biotype; assay: Malonyldialdehyde in tissue (lipoxidation, membrane damage) after spraying; assay type: in vivo; details: for membrane damage (malonyldialdehyde release): DDC 0.5% where added, low herbicide requiring biotype, untreated control = 100; for malonyldialdehyde in tissue (% untreated control): sensitive biotype
Protocol: (§2) Seeds of two biotypes of Conyza bonariensis (L.) Cronq. (synonym C. linifolia) were obtained from Egypt. The paraquat sensitive biotype was gathered near Alexendria and seeds of the resistant type from the Tahrir irrigation district. They were obtained from Dr. Martin Parham in England. Seeds were germinated in a growth room with a 14 h light period at 25° C. Plants were transferred out of doors 24 h before being sprayed. The phytotoxicity of three herbicides representative of the three different modes of generating active oxygen species known at present. Commercial paraquat (Gramoxone-ICI Plant Protection Ltd) was formulated with 0.1% (w/v) Tween-20 (a non-ionic surfactant) for spraying. The response to the range of 10^-5 M to 10^-2 M paraquat was measured by spraying two plants per concentration to run-off in the early morning. All plants were exposed to sunlight for at least 13 h (1300 μE.m^-2s^-1 photosynthetically active radiation (PAR) at mid day). Commercial acifluorfen (Blazer, Rohm, and Hass, Philadelphia, Pa., USA) to which was added 0.25% Tween-20 was sprayed to run-off. The response to spraying was measured as with paraquat 24 h after spraying. Commercial atrazine (Atranex 50 WP-Agan) was sprayed at various rates in 0.25% Tween 20 to run off. Fully expanded, 8 to 10 cm long leaves from plants in the rosette stage were used in all experiments. Phytotoxicity of acifluorfen and paraquat was measured as CO2 fixation 24 h later as follows: Detached leaves were placed on wet filter paper in a sealed chamber with 5μ Ci^14 C-sodium bicarbonate. Tartaric acid was remotely dripped on the sodium bicarbonate to release ^14 CO2. Leaves were illuminated with […] (PAR) for 30 min. Eighty percent acetone was added and the mixture put under strong light to photobleach pigments and evaporate the acetone. A scintillation mixture of Lumax:xylene (45:55) was added to the leaves and remaining water. The samples were counted and the data expressed as DPM.cm^-2. Area was measured with a planimeter from photocopies of the leaves made prior to photosynthesis measurements. Phytotoxicity of atrazine was measured as the elevated level of malonyldialdehyde in the tissue. Malonyldialdehyde (as measured with thiobarbituric acid according to Dodge and Gillham (Asp. Appl. Biol 11 97 (1986)) is a measurement of lipoxidation of unsaturated fatty acids, and provides an excellent estimation of damage by active oxygen species.
(§3) ^b membrane damage was measured as malonyldialdehyde release
(§4) Similarly, both the paraquat resistant and sensitive biotypes of Conyza bonariensis were treated with two other oxidant generating herbicides. Atrazine (of the triazine group) is the most widely used oxidant generating herbicides in agriculture. We used various dilutions of a commercial wettable powder (Atranex 50WP-Agan Chemicals) to which we added 0.5% DDC. The effects were scored 24 h later. […] We also tested to see whether acifluorfen, a nitro diphenyl ether herbicide would be synergized. It is generally agreed that light and oxygen are required for its action via oxidant damage. We sprayed a commercial formulation of acifluorfen (Blazer, Rohm and Haas) to which were added 0.25% Tween-20 detergent, with and without DDC. The effects were scored 24 h later.

[4] = tested on: Conyza bonariensis paraquat tolerant (high herbicide requiring) biotype; assay: as above; assay type: in vivo; details: for membrane damage (malonyldialdehyde release): DDC 0.5% where added, high herbicide requiring biotype, untreated control = 100; for malonyldialdehyde in tissue (% untreated control): tolerant biotype
Protocol: as §2, §3, §4

[5] = tested on: Conyza bonariensis high herbicide requiring biotype; assay: Whole plant spray, visual rating; assay type: in vivo; details: DDC 0.5% where added, high herbicide requiring biotype; for visual ratings: scored one day after treatment
Excerpt: (§5) Seeds of Conyza bonariensis were germinated and plants cultivated as outlined in Example 1. Other species were germinated in a similar mixture and treated at 10 days.
as §1
(§6) ^a visual ratings (scored 1 day after treatment): 0 no damage to
(§7) slight burn; 1 moderate burn (may regenerate); 2 severe burn (will die)
as §4

[6] = tested on: Conyza bonariensis low herbicide requiring biotype; assay: Whole plant spray, visual rating; assay type: in vivo; details: DDC 0.5% where added, scored one day after treatment
Excerpt: as §5, §1, §6, §7, §4

[7] = tested on: bean leaf discs; assay: Bean leaf disc bleaching assay; assay type: cell-based; details: 5 h at 450 μEin.m^-2 s^-1
Protocol: We used this bean leaf disc system to ascertain the potential of chelators to synergize a large variety of phytotoxicants purported to act by generating active oxygen species in the light.
Bean discs were incubated on solutions containing the above mixtures for 5 h at 450 μEin.m^-2 s^-1 and the chlorophyll remaining in the leaves was assayed.

[8] = tested on: Conyza bonariensis paraquat sensitive biotype; assay: Phytotoxicity measured as 14CO2 fixation 24 h after spraying; assay type: in vivo; details: sensitive biotype
Protocol: as §2

[9] = tested on: Conyza bonariensis paraquat tolerant biotype; assay: as above; assay type: in vivo; details: tolerant biotype
Protocol: as §2

[10] = tested on: Conyza bonariensis low herbicide requiring biotype; assay: Photosynthesis (14CO2 fixation) of leaf discs removed 5 h after spray treatment; assay type: in vivo; details: foliar, DDC 0.5% where added, leaf discs removed 5 h after treatment, untreated control = 100
Protocol: as §4
^b photosynthesis (^14 CO2 fixation) was used as an
additional measurement of phytotoxicity. Leaf discs were removed 5 h afte
treatment for measurement

[11] = atrazine 20 μM spray to run off
[12] = atrazine 40 μM spray to run off
[13] = atrazine molar conc. 1.0 × 10^-2
[14] = atrazine molar conc. 1.5 (× 10^-2)
[15] = atrazine molar conc. 2.0 (× 10^-2)
[16] = atrazine molar conc. 3.0 (× 10^-2)
[17] = atrazine molar conc. 4.0 (× 10^-2)
[18] = atrazine molar conc. 5.0 (× 10^-2)
[19] = atrazine 15 μM spray to run off
[20] = atrazine 30 μM spray to run off
[21] = herbicide molar conc. 3.2 × 10^-3

Molecule: O=C(O)c1cccc(C(=O)O)n1 [Pyridine-2,6-dicarboxylic acid]
- chlorophyll remaining - % of control ([1]; chelator alone 0.005%): 100 % of control

Molecule: zinc ethylene-bis (dithiocarbamate) (polymeric) [zineb]
- synergistic effects with paraquat [2]: Neither maneb nor zineb had synergistic effects with paraquat

Molecule: CCNc1nc(Cl)nc(NC(C)C)n1 [atrazine]
- membrane damage (malonyldialdehyde release) [3, 11]: 130
- membrane damage (malonyldialdehyde release) [3, 12]: 225
- malonyldialdehyde in tissue (% untreated control) [3, 13]: 100 % untreated control
- malonyldialdehyde in tissue (% untreated control) [3, 14]: 135 % untreated control
- malonyldialdehyde in tissue (% untreated control) [3, 15]: 130 % untreated control
- malonyldialdehyde in tissue (% untreated control) [3, 16]: 155 % untreated control
- malonyldialdehyde in tissue (% untreated control) [3, 17]: 225 % untreated control
- malonyldialdehyde in tissue (% untreated control) [3, 18]: 320 % untreated control
- membrane damage (malonyldialdehyde release) [4, 11]: 100
- membrane damage (malonyldialdehyde release) [4, 12]: 100
- malonyldialdehyde in tissue (% untreated control) [4, 13]: 100 % untreated control
- malonyldialdehyde in tissue (% untreated control) [4, 14]: 100 % untreated control
- malonyldialdehyde in tissue (% untreated control) [4, 15]: 100 % untreated control
- malonyldialdehyde in tissue (% untreated control) [4, 16]: 100 % untreated control
- malonyldialdehyde in tissue (% untreated control) [4, 17]: 100 % untreated control
- malonyldialdehyde in tissue (% untreated control) [4, 18]: 125 % untreated control
- % of control chlorophyll ([1]; atrazine 3 × 10^-6 M, 3 µM): 95 % of control
- % of control chlorophyll ([1]; atrazine 10^-5, 10 µM): 92 % of control
- visual ratings [5, 19]: 1.7
- visual ratings [5, 20]: 1.7
- visual ratings [6, 19]: 2.1
- visual ratings [6, 20]: 2.3

Molecule: NCCNCCNCCN [Triethylene-tetramine]
- chlorophyll remaining - % of control ([1]; chelator alone 0.008%): 90 % of control

Molecule: CCCCCCCCc1ccc(O)c(C(C)=NO)c1 [4-Octyl-2-acetyl-phenol oxime, oxime of 4-octyl-2-acetyl-phenol]
- chlorophyll remaining - % of control ([1]; chelator alone 0.125%): 96 % of control

Molecule: CCCCC(CC)COP(=O)(O)OCC(CC)CCCC (centres unmarked) [di-2-ethyl-hexyl-phosphoric acid, Di-2-ethyl-hexyl phosphoric acid]
- chlorophyll remaining - % of control ([1]; chelator alone 0.001%): 98 % of control
- chlorophyll - % of control ([7]; acifluorfen 0 μM, chelator alone 0.01% w/v): 98 % of control
- chlorophyll - % of control ([7]; acifluorfen 0 μM, chelator alone 0.02% w/v): 91 % of control
- chlorophyll - % of control ([7]; paraquat 0 μM, chelator alone 0.01% w/v): 98 % of control

Molecule: manganese ethylene-bis(dithiocarbamate) (polymeric) [maneb]
- synergistic effects with paraquat [2]: Neither maneb nor zineb had synergistic effects with paraquat

Molecule: O=C(O)c1cc(Oc2ccc(C(F)(F)F)cc2Cl)ccc1[N+](=O)[O-] [acifluorfen]
- % photosynthesis inhibition [8, 21]: 72%
- % photosynthesis inhibition ([8]; herbicide molar conc. 3.2 × 10^-4): 40%
- % photosynthesis inhibition ([8]; herbicide molar conc. 10^-2): 98%
- % photosynthesis inhibition ([8]; herbicide molar conc. 10^-3): 58%
- % photosynthesis inhibition ([8]; herbicide molar conc. 10^-4): 23%
- % photosynthesis inhibition [9, 21]: 67%
- % photosynthesis inhibition ([9]; herbicide molar conc. 10^-2): 99%
- % photosynthesis inhibition ([9]; herbicide molar conc. 10^-3): 21%
- visual rating ([5]; acifluorfen 100 μM spray to runoff, scored 24 h after treatment): 2.5
- activity at 3 µM ([10]; acifluorfen 3 μM spray to runoff): 75%
- activity at 100 µM ([10]; acifluorfen 100 μM spray to runoff): 10%
- chlorophyll - % of control ([7]; acifluorfen 3 μM, chelator 0.01% w/v where added): 91 % of control

Molecule: NCCNCCNCCNCCN [Tetraethylene-pentamine, tetraethylene pentamine]
- chlorophyll remaining - % of control ([1]; chelator alone 0.025%): 99 % of control
